The nature of this series: Plasma pharmacokinetic profile of cannabidiol after a single topical dose (In-life Study 1901002-01, LC-MS/MS). It is filed as in vivo, CD-1 mice. Particulars: CD-1, topical or ocular, single topical dose 0.1 mL, mouse plasma. The protocol: The objective of this study was to determine the plasma pharmacokinetic (PK) profile of test article cannabidiol (CBD) following the administration of a single topical dose to CD-1 mice. The work was conducted at Alliance Pharma with a title of In-life Study 1901002-01. Although the in-life study was not intended to be conducted in compliance with Good Laboratory Practice regulations, the study was conducted in accordance with Alliance Pharma's IACUC (Institutional Animal Care and Use Committee) Protocol No. 2016-02_V4 and Alliance Pharma's standard operating procedures (SOPs). In addition, the pharmacokinetic analyses of mouse plasma samples were conducted in accordance with Alliance Pharma SOPs.
A total of 72 mouse (CD-1) plasma samples were transferred from Alliance Pharma's in-life facility located in Malvern, Pa. to the Bioanalytical department for pharmacokinetic analysis. The concentration of CBD in these 72 plasma samples was measured using high-performance liquid chromatography (HPLC) with tandem mass spectrometry (MS/MS) detection.
Test Article: The dose gels for test article CBD were provided by Ampersand Biopharma dba Dyve Biosciences (Thousand Oakes, Calif.), prior to the start of this study and stored at room temperature.
In-life Study Design: In-life Study 1901002-01 was performed at the in-life testing facility at Alliance Pharma. Four (4) groups of 21 CD-1 mice each (84 total) were administered a single topical dose of CBD. Mice in Group 1 were administered Formulation A at a strength of 2.5% CBD. Mice in Group 2 were administered Formulation B at the same strength of 2.5% CBD. Mice in Group 3 were administered Formulation C at a strength of 5% CBD, and mice in Group 4 were administered Formulation C at a strength of 2.5% CBD. The treatment scheme is summarized below.
Animals in each group received topical administration of either 2.5% o 5% CBD using a 1 ml syringe to draw up exactly 100 μl. Compound was applied in the shaved area only. Each group received a different formulation of the compound.
Sample Collection, Processing, and Shipment: Blood samples were collected at the in-life facility at the following time points: 0.25, 0.5, 1, 2, 4, and 8 hours post-dose from 72 mice in Groups 1 through 4 (18 from each treatment group). Target volume was less than or equal to 0.2 ml. The blood was collected via trunk puncture into tubes using K2 EDTA as an anticoagulant. The collected blood samples were kept on wet ice before being centrifuged. Blood samples were centrifuged as soon as possible after blood collection at approximately 10,000 rpm for about 10 minutes to separate the plasma. Approximately 0.2 mL of each plasma sample was transferred into labeled Eppendorf tubes. Each tube was stored in a freezer set to −20° C. or lower. No blood was collected from 12 (3 from each treatment group) of the 84 mice enrolled in the in-life study; thus, the total number of plasma samples that were transferred to the Alliance Pharma Bioanalytical department for bioanalysis was 72.
Assay Procedures: For analysis of CBD, a 25-μL aliquot of each study sample was mixed with 25 μL of acetonitrile/water (50:50, v/v). Samples were then extracted by protein precipitation using acetonitrile containing the internal standard, tolbutamide (25 ng/mL). A portion of the supernatant was diluted in deionized water and used for the analysis of CBD.
Preparation of Standards and Quality Controls: Calibration standards of CBD mouse plasma samples were prepared in acetonitrile/water (50:50, v/v) at concentrations of 1, 2, 20, 200, 500, 1000, 1800, and 2000 ng/mL. The low quality control (LQC), medium quality control (MQC), and high quality control (HQC) were prepared in blank mouse plasma at concentrations of 3, 150, and 1500 ng/mL, respectively. A dilution quality control (DQC) was prepared at a concentration of 10,000 ng/mL and used in Batch 1.
Sample Analyses: Study samples were analyzed using a bioanalytical method qualified by Alliance Pharma. […]

Setting [1] is: Group 1: AEM.CBD.006 Formulation A 2.5% CBD, mean dose 78.69 mg/kg.
Setting [2] is: Group 2: AEM.CBD.007 Formulation B 2.5% CBD, mean dose 76.61 mg/kg.
Where [3] appears, read: Group 3: KBM.CBD.010 Formulation C 5% CBD, mean dose 155.24 mg/kg.
Setting [4] is: Group 4: KBM.CBD.011 Formulation C 2.5% CBD, mean dose 75.76 mg/kg.

Turning to `C=C(C)[C@@H]1CCC(C)=C[C@H]1c1c(O)cc(CCCCC)cc1O` [Cannabidiol], under setting [1], the AUC(0-inf) was 1860 ng·h/mL, the AUC(0-t) was 1760 ng·h/mL, the Cmax was 427 ng/mL and the time of peak concentration (Tmax) stood at 2 h. Under setting [1], this molecule gave a half-life of 1.78 h. For the same molecule, under setting [2], the area under the curve AUC(0-inf) turned out to be 1650 ng·h/mL, the AUC(0-t) amounted to 1560 ng·h/mL, the Cmax was 360 ng/mL and the Tmax was found to be 2 h. In addition, the half-life under setting [2] is 1.7 h. Further, under setting [3], the area under the curve AUC(0-inf) came out at 3530 ng·h/mL, the AUC(0-t) is 3070 ng·h/mL, the Cmax was 602 ng/mL and the time of peak concentration (Tmax) amounted to 4 h. In addition, under setting [4], the AUC(0-inf) was 1510 ng·h/mL, the AUC(0-t) was found to be 1410 ng·h/mL, the peak level (Cmax) was 332 ng/mL and the Tmax amounted to 1 h. This molecule showed a half-life under setting [4] of 1.92 h.

Broadly, the AUC(0-inf) is total exposure, with the tail of the curve extrapolated. Lower therefore signals less exposure. The AUC(0-t) is the area under the concentration-time curve up to a stated or last time point. A higher AUC(0-t) goes with more exposure. A word on the Cmax: it is the peak of the concentration-time curve. Usually Tmax stands for the time from dosing to the highest level. The half-life is the time in which the quantity being followed falls by half. High values mean slow decline, low ones rapid decline.
